The values that follow come from PMC7277860, “Viridistratins A−C, Antimicrobial and Cytotoxic Benzo[j]fluoranthenes from Stromata of Annulohypoxylon viridistratum (Hypoxylaceae, Ascomycota)” (Biomolecules, 2020).

In brackets after ≈: the same amount, converted by molar mass.

Experiment in all cases: MIC serial dilution assay
Type in all cases: cell-based

One experiment deals with Pseudomonas aeruginosa. The note with it: Pseudomonas aeruginosa PA14; overnight, 37 °C; reference gentamicin 0.1 mg/mL; read-out: Minimum Inhibitory Concentration (MIC). The method, then: (§1) Compounds 1, 2, 4 and 5 were dissolved in MeOH (1 mg/mL) for the antimicrobial activity assay, while compound 3 was dissolved in MeOH: DMSO 9+1 (1 mg/mL). The solvents were also used as negative controls.
(§2) Minimum inhibitory concentrations (MIC) were determined in a serial dilution assay, as described previously; a detailed protocol can be found in the Supporting Information. The compounds (1 mg/mL) were diluted to a range of 66.7 to 0.52 µg/mL and incubated with the test organisms overnight. Inhibition of growth was visually evaluated the next day: the MIC is defined as the lowest concentration of the test compound where no growth of the test organism was observed. Various test organisms of fungal and bacterial origin were tested to cover a broad range of microorganisms. This selection is also being used as a standard test panel in our attempts to discover new anti-infectives, as it represents a broad spectrum of pathogens of clinical interest, as well as sensitive indicator strains (bacteria: Bacillus subtilis, Staphylococcus aureus, Micrococcus luteus, Chromobacterium violaceum, Escherichia coli and Pseudomonas aeruginosa; mycobacteria: Mycolicibacterium smegmatis and fungi: Candida albicans, Schizosaccharomyces pombe, Mucor hiemalis, Pichia anomala and Rhodotorula glutinis).
(§3) Protocol: Antimicrobial Activi ty Assay
(§4) The assay was conducted as a minimum inhi bitory concentration (MIC) assay in 96-well ro und-bottom mi crotiter pl ate s usi ng the p ar ameter s su mm ari zed i n T a bl e S 1 and as already described i n [S1].
(§5) Stocks of the test organi sms were generated by growing the organisms o ver ni ght i n 50 mL shaki ng fl asks fi ll ed wi th 25 mL of the growth medi um at 140 rpm (for media and temperatures see Table S1). If the organisms were well grown the ne xt day, which was checked by occurrence of an optical density (OD)>30 of the suspension (OD600 nm for bacteria, OD548 nm for fungi and M. smegma tis) , aliquots of these were stored i n 1.5 mL reaction tube s in a freezer at −80 °C for up to 12 mo nths . Upon use, aliquots were unth awed and the OD of the suspension measured and adjusted by diluting with the respective growth medi um. OD600 nm w as adj usted to 0.01 and OD548 nm to 0.1.
(§6) Subse que ntly, 150 µL o f the adjusted suspensions were added to all wells of a 96-wel l microtiter pl ate (one test organi sm per plate). In row A, additional 130 µL of suspensions plus 20 µL of the test compounds (1 mg/mL) and the controls (one compound/column) were added. MeOH as well as MeOH:DMSO 9+1 were used as negative controls, while different positive controls (refer ences) were used for the test organisms (see Tabl e S1). Then, starti ng from row A, 150 µ L of the suspension were transferred to the next row, the contents thoroughly mixed, and 150 µ L transferred to the following row.
(§7) The remaining 150 µ L after row H were discarded. […]
(§8) compounds, ranging from 66.7 µg/mL i n row A to 0.52 µg/mL i n row H.
(§9) The microtiter plates were then incubated overnight o n a microplate shaker at 800 rpm at 30 or 37 °C (see Table S1) and were visually evaluated the next day. The MIC is defined as the lowest concentration were no growth of the test organism was o bserved. A lower MIC thus corresponds to a higher antimicrobial activity of the test compound.
(§10) Table S1: MIC assay ex per i men t parameters test organism strain No. growth incubation positive control (reference) […]
Pseudomonas a erugi nosa PA14 MHB 1 37 gent amici n 0.1 mg/mL […]
(§11) Rhodotorula glutinis DSM10134 MYC 3 30 nyst ati n 1.0 mg/mL
(§12) 1 MHB: Müller-Hinton Broth (SN X927.1, Ca r l Roth GmbH, Karlsruhe, Germany) 2 7H9+ADC: Middlebrook 7H9 Broth Base + Middlebrook ADC Growth Supplement (SN M0678+M0553, Merck, Darmstadt, Germany)
(§13) 3 MYC: 1 % w/v, bacto peptone, 1% w/v yeast extract, 2 % w /v glycerol, pH 6.3 [S1] Helaly, S.E.; Ashrafi, S.; Teponno, R.B.; Bernecker, S.; Dababat, A.A.; Maier, W.; Stadler, M.
(§14) Nematicidal Cyclic Lipodepsipeptides and a Xanthocillin Derivative from a Phaeosphariaceous […]

The subject of a further experiment is Staphylococcus aureus. Conditions: Staphylococcus aureus DSM346; overnight, 30 °C; reference oxytetracycline 0.1 mg/mL; read-out: Minimum Inhibitory Concentration (MIC). The method, then: as §1, §2, §3, §4, §5, §6, §7, §8, §9, §10
Staphylococcus aureus DSM346 MHB 1 30 oxytetr acyclin 0.1 mg/mL […]
as §11, §12, §13, §14

Another experiment deals with Micrococcus luteus. The note with it: Micrococcus luteus, DSM1790, Micrococcus luteus DSM1790; overnight, 30 °C; reference oxytetracycline 0.1 mg/mL; read-out: Minimum Inhibitory Concentration (MIC). The method, then: as §1, §2, §3, §4, §5, §6, §7, §8, §9, §10
Micrococcus luteu s DSM1790 MHB 1 30 oxytetr acyclin 0.1 mg/mL […]
as §11, §12, §13, §14

The next experiment relates to Bacillus subtilis. The note with it: Bacillus subtilis DSM10; overnight, 30 °C; reference oxytetracycline 1 mg/mL; read-out: Minimum Inhibitory Concentration (MIC). On the procedure:
as §1, §2, §3, §4, §5, §6, §7, §8, §9, §10
Bacillus subtilis DSM10 MHB 1 30 oxytetr acyclin 1.0 mg/mL […]
as §11, §12, §13, §14

The test system of experiment [1] is Chromobacterium violaceum. Conditions: Chromobacterium violaceum DSM30191; overnight, 30 °C; reference oxytetracycline 0.1 mg/mL; read-out: Minimum Inhibitory Concentration (MIC). On the procedure: as §1, §2, §3, §4, §5, §6, §7, §8, §9, §10
Chromobacterium DSM30191 MHB 1 30 oxytetr acyclin 0.1 mg/mL […]
as §11, §12, §13, §14

In another experiment the test system is Escherichia coli. Conditions: Escherichia coli DSM1116; overnight, 37 °C; reference oxytetracycline 0.1 mg/mL; read-out: Minimum Inhibitory Concentration (MIC). The method, then: as §1, §2, §3, §4, §5, §6, §7, §8, §9, §10
Escherichia coli DSM1116 MHB 1 37 oxytetr acyclin 0.1 mg/mL […]
as §11, §12, §13, §14

Experiment [2] deals with Mycolicibacterium smegmatis. Conditions: Mycolicibacterium smegmatis ATCC700084; overnight, 37 °C; reference kanamycin 0.1 mg/mL. The method, then:
as §1, §2, §3, §4, §5, §6, §7, §8, §9, §10, §11, §12, §13, §14

For `CNC(C)C1CCC(N)C(OC2C(N)CC(N)C(OC3OCC(C)(O)C(NC)C3O)C2O)O1` (stereo not shown) [gentamicin, reference compound], in the experiment on Pseudomonas aeruginosa, the MIC came to 0.4 µg/mL (≈ 0.838 µM).

Consider `CN(C)[C@@H]1C(O)=C(C(N)=O)C(=O)[C@@]2(O)C(O)=C3C(=O)c4c(O)cccc4[C@@](C)(O)[C@H]3[C@H](O)[C@@H]12` [oxytetracycline, reference compound], for which the MIC with Staphylococcus aureus worked out at 0.4 µg/mL (≈ 0.869 µM); in the experiment on Micrococcus luteus it was 0.8 µg/mL (≈ 1.74 µM); in the experiment with Bacillus subtilis, 8.3 µg/mL (≈ 18 µM); in experiment [1], 0.1 µg/mL (≈ 0.217 µM); in the experiment on Escherichia coli it was 1.7 µg/mL (≈ 3.69 µM).

For the compound `NC[C@H]1O[C@H](O[C@H]2[C@H](O)[C@@H](O[C@H]3O[C@H](CO)[C@@H](O)[C@H](N)[C@H]3O)[C@H](N)C[C@@H]2N)[C@H](O)[C@@H](O)[C@@H]1O` [kanamycin, reference compound], in experiment [2], the “Minimum Inhibitory Concentration (MIC)” value is given as 3.3 ^4 µg/mL.
